Values quoted from earlier work, collected in patent US20220160779A1, “COMPOSITION FOR PROMOTING CARTILAGE TISSUE REGENERATION” (National University Corporation Tokyo Medical and Dental …, priority 2019, published 2022).

System: proteoglycans
Conditions: cited from earlier work

In the case of “Activin A: homodimer of two inhibin βA chains; recombinant human protein purchased from R&D Systems”, the expression of proteoglycans is given as “promotes the expression of proteoglycans”.
